Reference: the SangsterLogP compilation

Assay: method code SF, from Hansch, C. & Leo, A. (1987). Log P database [Dataset]. Pomona College Medicinal Chemistry Project.
Conditions: not given

Point of comparison: `Brc1cccs1`, logP 2.75. Against it:
- C[C@@H]1C[C@H]2[C@@H]3CCC4=CC(=O)C=C[C@]4(C)[C@@]3(F)[C@@H](O)C[C@]2(C)[C@@]1(O)C(=O)CO — lower, 1.99
- CCOc1ccccc1OC — lower, 1.73
- COC(=O)c1c(C)n(C)c2c1c1c(O)c3c(O)c(C)c4c(c32)C(=O)C(C)(OC=CC(OC)C(C)C(OC(C)=O)C(C)C(O)C(C)C(O)C(C)C=CC=C(C)C(=O)N1)O4 (stereo not drawn) — lower, 1.46
- Nc1cc(=O)[nH]cn1 — lower, -0.99
- Brc1cccc(Br)c1 — higher, 3.75
- O=Cc1cccc(Oc2ccccc2)c1 — higher, 3.38
- CCNC(N)=O — lower, -0.74
- CCCOc1ccccc1 — higher, 3.18
- CCOC(=O)C(=Cc1ccccc1Cl)C(=O)OCC — higher, 3.15
- CNC(N)=NC#N — lower, -0.77
- CCCC(C(=O)OCCN(CC)CC)(c1ccccc1)c1ccccc1 — higher, 4.65
- CCC1(c2ccccc2)C(=O)NCNC1=O — lower, 0.91
- CCOP(=O)(N1CC1(C)C)N1CC1(C)C (stereo not drawn) — lower, 1.02
- CNC(=O)Oc1cccc(Cl)c1Cl — lower, 2.48
- COc1ccc2[nH]c(CCCc3nc4cc(OC)ccc4[nH]3)nc2c1 — lower, 1.75
- NC(=O)/C=C/c1ccccc1 — lower, 1.42
- Cc1ccc(OC(=O)CNC(=O)c2ccccc2)cc1 — within 0.2 log units, 2.83
- O=c1cnn([C@@H]2O[C@H](CO)[C@@H](O)[C@H]2O)c(=O)[nH]1 — lower, -2.14
- C=C(C)CC1(CC)C(=O)NC(=S)NC1=O — lower, 2.19
- N#CN=[N+]([O-])c1ccc(Br)cc1 — lower, 2.5
- CC(=O)Oc1ccccc1[N+](=O)[O-] — lower, 1.55
- CCCCC — higher, 3.23
- COc1ccc2[nH]c(C(O)C(O)c3nc4cc(OC)ccc4[nH]3)nc2c1 (stereo not drawn) — lower, 1.05
- O=c1[nH]nc(Sc2ccccc2)[nH]1 — lower, 1.46
- COC(=O)CNC(=O)c1ccccc1 — lower, 0.82
- C1=CCCCC1 — within 0.2 log units, 2.86
- CCCCC1OC(=O)c2cc(O)ccc21 (stereo not drawn) — higher, 3.12
- CNC(=O)C=Cc1ccccc1 — lower, 1.81
- O=C(CO)NCc1ccccc1 — lower, 0.55
- CC1=NCCN1CCO — lower, 0.04
- CCOC(=O)C(=Cc1ccc(OC)c(OC)c1)C(=O)OCC — within 0.2 log units, 2.89
- CCC=O — lower, 0.59
- Cc1ccc2[nH]c(C(O)C(O)c3nc4cc(C)ccc4[nH]3)nc2c1 (stereo not drawn) — lower, 1.27
- O=C1CCCCC1 — lower, 0.81
- CN(C)/N=N/c1cc(C#N)cc(C#N)c1 — lower, 2.18
- CCCC(=O)Nc1ccc(Cl)c(Cl)c1 — higher, 3.77
- CN(C)/N=N/c1cn([C@@H]2O[C@H](CO)[C@@H](O)[C@H]2O)c(=O)[nH]c1=O — lower, -1.82
- CCOC(=O)C(=Cc1ccccc1Cl)C(C)=O — within 0.2 log units, 2.84
- CC(=O)Sc1ccccc1 — lower, 2.23
- O=C(Nc1ccccc1)Oc1ccccc1 — higher, 3.3
- O=[N+]([O-])c1ccsc1 — lower, 1.55
- O=C1C=CC(=NBr)C=C1 — lower, 1.12
- CCOC(C)OCC — lower, 1.49
- C1OC1CN1CCN(CC2CO2)CC1 (stereo not drawn) — lower, -0.84
- CNP(=O)(OC)Oc1ccc(C(C)(C)C)cc1 (stereo not drawn) — within 0.2 log units, 2.71
- NS(=O)(=O)Nc1ccccc1 — lower, 0.4
- N#Cc1ccco1 — lower, 0.96
- CC#CC — lower, 1.46
- Cn1c(=O)ccc2ccccc21 — lower, 1.45
- COc1ccccc1C — within 0.2 log units, 2.74
- O=C1OC(c2ccccc2)c2ccccc21 (stereo not drawn) — within 0.2 log units, 2.64
- CCC(C)C(=O)Nc1ccccc1 (stereo not drawn) — within 0.2 log units, 2.56
- CCOC(=O)C(=Cc1ccc(OC)cc1OC)C(C)=O — lower, 2.41
- O=C(O)COc1ccc(S(=O)(=O)F)cc1 — lower, 1.82
- N#CSCc1ccccc1 — lower, 1.99
- CC(=O)OCCOC(=O)c1ccccc1 — lower, 1.85
- COC(=O)c1cc(Oc2ccc(Cl)cc2Cl)ccc1[N+](=O)[O-] — higher, 4.48
- O=[N+]([O-])c1ccc(C=Cc2ncccn2)o1 — lower, 1.34
- Cn1nnc2ccccc2c1=O — lower, 0.84
- CC(=O)NCCC(=O)N(C)c1ccc(S(=O)(=O)N(C)C)cc1 — lower, -0.35
- CCOC(=O)C(F)(F)C(F)(F)F — lower, 2.12
- ClC(Cl)(Cl)c1ccc(C(Cl)(Cl)Cl)cc1 — higher, 4.62
- O=C1c2ccccc2C(=O)N1CCCCBr — higher, 2.96
- CCOC(=O)/C(=C/c1cccc(F)c1)C(C)=O — lower, 2.46
- CCC(C)=O — lower, 0.5
- C=C(F)F — lower, 1.24
- NC(=O)CBr — lower, -0.52
- Cl/C=C/Cl — lower, 2.09
- CC(=NNC(=S)N(C)C)c1cc(C)ccc1O — lower, 2.26
- Cn1ncc2cc([N+](=O)[O-])cc([N+](=O)[O-])c21 — lower, 1.63
- Cc1n[nH]cc1[N+](=O)[O-] — lower, 0.19
- CCOC(CP(=O)(OCC)OCC)OCC — lower, 0.69
- Cc1ccccc1Cl — higher, 3.42
- C[C@]12CCC(=O)C=C1CC[C@@H]1[C@@H]2CC[C@]2(C)C(=O)CC[C@@H]12 — the same, 2.75
- Cc1cccc(Cl)c1 — higher, 3.28
- C=C1C(=O)O[C@@H]2/C=C(\C)CC/C=C(\C)CC[C@@H]12 — lower, 2.09
- OCc1ccoc1 — lower, 0.3
- CC(=O)Nc1ccc(Cl)c(Cl)c1 — higher, 2.96
- CN(C)c1nc2ccccc2o1 — lower, 2.1
- CC(=O)Nc1ccccc1C#N — lower, 0.57
- CC(=O)OC[C@H]1O[C@@H](NC(=O)N(CCCl)N=O)[C@H](OC(C)=O)[C@@H](OC(C)=O)[C@H]1OC(C)=O — lower, 1.04
- COC(=O)C[C@](O)(CCCC(C)(C)O)C(=O)OC1C(OC)=C[C@]23CCCN2CCc2cc4c(cc2[C@H]13)OCO4 (stereo partly drawn) — lower, 0.82
- CN(C)c1cnnc(N(C)C)c1 — lower, 0.84
- CC(=O)C(=Cc1ccc(Br)cc1)C(C)=O — the same, 2.75
- N#CN=[N+]([O-])c1ccc(C(F)(F)F)cc1 — lower, 2.47
- CNC(C)=O — lower, -1.05
- CC(=O)C(F)(F)F — lower, 0.2
- O=[N+]([O-])CCO — lower, -0.42
- COC(=O)c1ccccc1C — the same, 2.75

Same assay, conditions: pH 1.0

Point of comparison: `CS(=O)(=O)F`, logD 0.55. Against it:
- Oc1cc(-c2ccccc2)on1 — higher, 2.55
- O=C(O)C(c1ccccc1)c1ccccc1 — higher, 3.09
- O=C(O)CSc1ccccc1 — higher, 1.88

Same assay, conditions: pH 2.0

Work on `CCCCc1ccc(C(=O)O)nc1` yielded a logD of 0.68.

Same assay, conditions: pH 4.2

Compound `COCCN(N=Nc1[nH]cnc1C(N)=O)C(C)(C)C` has a logD of 1.14.

Same assay, conditions: pH 6.8

For `COC1(NC(=O)CSC(F)F)C(=O)N2C(C(=O)OCC(=O)C(C)(C)C)=C(CSC3(C)N=NN=N3)CSC21` (stereo not drawn), the logD was 2.31.

Same assay, conditions: pH 7.0

Point of comparison: `CCCOC(=O)c1cccnc1`, logD 1.94. Against it:
- CN(C)c1ccc(S(N)(=O)=O)cc1 — lower, 0.76

Same assay, conditions: pH 7.4

Point of comparison: `C#CCN(C)/N=N/c1nc[nH]c1C(N)=O`, logD 0.33. Against it:
- OC[C@H]1O[C@@H](n2cnc3c(=S)nc[nH]c32)[C@H](O)[C@@H]1O — lower, -0.6
- CC(=O)OC[C@]12CCC(C)=C[C@H]1O[C@@H]1[C@H](O)[C@@H](OC(C)=O)[C@@]2(C)[C@]12CO2 — higher, 0.91
- CSc1ccccc1/N=N/N(C)C — higher, 3.13
- COc1ccccc1/N=N/N(C)C — higher, 2.34

Same assay, conditions: pH 8.0

Work on `O=C(c1ccccc1)c1cccnc1` yielded a logD of 1.88.

Same assay, conditions: pH 11.0

Point of comparison: `c1cncc(CN2CCCC2)c1`, logD 1.1. Against it:
- CN(C)CCCCc1cccnc1 — higher, 1.49

Same assay, conditions: pH 12.3

Point of comparison: `CCC[C@H]1CN[C@H](C(=O)N[C@@H]([C@H]2O[C@H](SC)[C@H](O)[C@@H](O)[C@H]2O)[C@H](C)Cl)C1`, logD 1.69. Against it:
- CCCC1CNC(C(=O)NC(C(C)O)C2OC(SC)C(O)C(O)C2O)C1 (stereo not drawn) — lower, 0.04

Same assay, conditions: pH 13.0

Point of comparison: `NNc1ccc(Br)cc1`, logD 1.39. Against it:
- c1ccc(N2CCCCC2)cc1 — higher, 2.98
- CC1(C)N=C(N)N=C(N)N1c1ccc(C(F)(F)F)cc1 — within 0.2 log units, 1.22
- CC1(C)N=C(N)N=C(N)N1c1cccc(COc2cccc(NC(N)=O)c2)c1 — lower, 0.9
